# Reference: PubChem BioAssay AID2060620 (Molecular Pharmacology Branch, DTP, NCI, 2025)
# Test system: 328373-195-R-J1-PDC complex spheroids, viability % test/control
# Experiment: Anticancer human tumor 328373-195-R-J1-PDC patient-derived head and neck squamous carcinoma cell line growth inhibition [CLK]
# Conditions: for IC50: curve of first compound; for viability, T/C: stronger effect = lower value
# Method in brief: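 Patient-derived tumor cells grown as complex spheroids with HUVEC endothelial cells and mesenchymal stem cells, treated with drug combinations. Concentrations descend in half-log steps from near clinical Cmax, or from 10 microM if Cmax unknown.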
# [1] = second compound 0.0316 µM, first compound 0.0316 µM
# [2] = second compound 0.0316 µM, first compound 0.1 µM
# [3] = second compound 0.0316 µM, first compound 0.316 µM
# [4] = second compound 0.0316 µM, first compound 1 µM
# [5] = second compound 0.1 µM, first compound 0.0316 µM
# [6] = second compound 0.1 µM, first compound 0.1 µM
# [7] = second compound 0.1 µM, first compound 0.316 µM
# [8] = second compound 0.1 µM, first compound 1 µM
# [9] = second compound 0.316 µM, first compound 0.0316 µM
# [10] = second compound 0.316 µM, first compound 0.1 µM
# [11] = second compound 0.316 µM, first compound 0.316 µM
# [12] = second compound 0.316 µM, first compound 1 µM
# [13] = second compound 1 µM, first compound 0.0316 µM
# [14] = second compound 1 µM, first compound 0.1 µM
# [15] = second compound 1 µM, first compound 0.316 µM
# [16] = second compound 1 µM, first compound 1 µM
# [17] = second compound 3.16 µM, first compound 0.0316 µM
# [18] = second compound 3.16 µM, first compound 0.1 µM
# [19] = second compound 3.16 µM, first compound 0.316 µM
# [20] = second compound 3.16 µM, first compound 1 µM
# [21] = second compound 10 µM, first compound 0.0316 µM
# [22] = second compound 10 µM, first compound 0.1 µM
# [23] = second compound 10 µM, first compound 0.316 µM
# [24] = second compound 10 µM, first compound 1 µM
# [25] = second compound 0.0316 µM, first compound 0.00316 µM
# [26] = second compound 0.0316 µM, first compound 0.01 µM
# [27] = second compound 0.1 µM, first compound 0.00316 µM
# [28] = second compound 0.1 µM, first compound 0.01 µM
# [29] = second compound 0.316 µM, first compound 0.00316 µM
# [30] = second compound 0.316 µM, first compound 0.01 µM
# [31] = second compound 1 µM, first compound 0.00316 µM
# [32] = second compound 1 µM, first compound 0.01 µM
# [33] = second compound 3.16 µM, first compound 0.00316 µM
# [34] = second compound 3.16 µM, first compound 0.01 µM
# [35] = second compound 10 µM, first compound 0.00316 µM
# [36] = second compound 10 µM, first compound 0.01 µM
# 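Further: spheroids exposed to the agents for 7 days.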
smiles,measurement,setting,value
CC(Nc1ccc2c(c1)OCCn1cc(N3C(=O)OCC3C(F)F)nc1-2)C(N)=O (stereo unspecified) + CNC(=O)c1ccc(Nc2nc(OC3CCCC3)c3c(-c4ccc5nc(C)oc5c4)c[nH]c3n2)c(OC)c1,IC50,second compound 0.0316 µM,5300 nM
same,IC50,second compound 0.1 µM,< 31.6 nM
same,IC50,second compound 0.316 µM,< 31.6 nM
same,IC50,second compound 1 µM,< 31.6 nM
same,IC50,second compound 3.16 µM,< 31.6 nM
same,IC50,second compound 10 µM,< 31.6 nM
same,"viability, T/C",[1],64.5%
same,"viability, T/C",[2],63%
same,"viability, T/C",[3],56.1%
same,"viability, T/C",[4],61.7%
same,"viability, T/C","second compound 0.0316 µM, first compound 3.16 µM",57%
same,"viability, T/C","second compound 0.0316 µM, first compound 10 µM",41.6%
same,"viability, T/C",[5],12.4%
same,"viability, T/C",[6],12.9%
same,"viability, T/C",[7],11.3%
same,"viability, T/C",[8],13.8%
same,"viability, T/C","second compound 0.1 µM, first compound 3.16 µM",10.4%
same,"viability, T/C","second compound 0.1 µM, first compound 10 µM",10.2%
same,"viability, T/C",[9],10.3%
same,"viability, T/C",[10],11%
same,"viability, T/C",[11],12.6%
same,"viability, T/C",[12],9.39%
same,"viability, T/C","second compound 0.316 µM, first compound 3.16 µM",9.16%
same,"viability, T/C","second compound 0.316 µM, first compound 10 µM",11.8%
same,"viability, T/C",[13],12%
same,"viability, T/C",[14],10.1%
same,"viability, T/C",[15],9.86%
same,"viability, T/C",[16],10.9%
same,"viability, T/C","second compound 1 µM, first compound 3.16 µM",10.3%
same,"viability, T/C","second compound 1 µM, first compound 10 µM",10.2%
same,"viability, T/C",[17],11.7%
same,"viability, T/C",[18],11%
same,"viability, T/C",[19],11.4%
same,"viability, T/C",[20],8.89%
same,"viability, T/C","second compound 3.16 µM, first compound 3.16 µM",13.5%
same,"viability, T/C","second compound 3.16 µM, first compound 10 µM",8.5%
same,"viability, T/C",[21],11.8%
same,"viability, T/C",[22],11.6%
same,"viability, T/C",[23],10.7%
same,"viability, T/C",[24],11.9%
same,"viability, T/C","second compound 10 µM, first compound 3.16 µM",13.7%
same,"viability, T/C","second compound 10 µM, first compound 10 µM",11%
CCN1CCN(Cc2ccc(Nc3ncc(F)c(-c4cc(F)c5nc(C)n(C(C)C)c5c4)n3)nc2)CC1 + CNC(=O)c1ccc(Nc2nc(OC3CCCC3)c3c(-c4ccc5nc(C)oc5c4)c[nH]c3n2)c(OC)c1,IC50,second compound 0.0316 µM,54.9 nM
same,IC50,second compound 0.1 µM,< 3.16 nM
same,IC50,second compound 0.316 µM,< 3.16 nM
same,IC50,second compound 1 µM,< 3.16 nM
same,IC50,second compound 3.16 µM,< 3.16 nM
same,IC50,second compound 10 µM,< 3.16 nM
same,"viability, T/C",[25],53.3%
same,"viability, T/C",[26],60.8%
same,"viability, T/C",[1],46.3%
same,"viability, T/C",[2],48.5%
same,"viability, T/C",[3],44.6%
same,"viability, T/C",[4],36.1%
same,"viability, T/C",[27],12.7%
same,"viability, T/C",[28],11.1%
same,"viability, T/C",[5],13.1%
same,"viability, T/C",[6],13.4%
same,"viability, T/C",[7],15.7%
same,"viability, T/C",[8],19.4%
same,"viability, T/C",[29],11.2%
same,"viability, T/C",[30],11.9%
same,"viability, T/C",[9],11.8%
same,"viability, T/C",[10],12.6%
same,"viability, T/C",[11],17.2%
same,"viability, T/C",[12],14.6%
same,"viability, T/C",[31],9.58%
same,"viability, T/C",[32],12%
same,"viability, T/C",[13],12.7%
same,"viability, T/C",[14],12.3%
same,"viability, T/C",[15],14.1%
same,"viability, T/C",[16],15.2%
same,"viability, T/C",[33],12%
same,"viability, T/C",[34],10.5%
same,"viability, T/C",[17],12.8%
same,"viability, T/C",[18],15%
same,"viability, T/C",[19],15.9%
same,"viability, T/C",[20],16.7%
same,"viability, T/C",[35],14.5%
same,"viability, T/C",[36],11.4%
same,"viability, T/C",[21],15.1%
same,"viability, T/C",[22],15.1%
same,"viability, T/C",[23],17.6%
same,"viability, T/C",[24],13.1%
COc1c(OCCCN2CCOCC2)ccc2c3n(c(=NC(=O)c4cnc(N)nc4)nc12)CCN3 + CNC(=O)c1ccc(Nc2nc(OC3CCCC3)c3c(-c4ccc5nc(C)oc5c4)c[nH]c3n2)c(OC)c1,IC50,second compound 0.0316 µM,141 nM
same,IC50,second compound 0.1 µM,< 3.16 nM
same,IC50,second compound 0.316 µM,< 3.16 nM
same,IC50,second compound 1 µM,< 3.16 nM
same,IC50,second compound 3.16 µM,< 3.16 nM
same,IC50,second compound 10 µM,< 3.16 nM
same,"viability, T/C",[25],68.3%
same,"viability, T/C",[26],67.3%
same,"viability, T/C",[1],68.2%
same,"viability, T/C",[2],60.7%
same,"viability, T/C",[3],24.9%
same,"viability, T/C",[4],8.91%
same,"viability, T/C",[27],10.9%
same,"viability, T/C",[28],12.2%
same,"viability, T/C",[5],11.8%
same,"viability, T/C",[6],12.3%
same,"viability, T/C",[7],7.7%
same,"viability, T/C",[8],6.41%
same,"viability, T/C",[29],10.6%
same,"viability, T/C",[30],11.2%
same,"viability, T/C",[9],10%
same,"viability, T/C",[10],9.38%
same,"viability, T/C",[11],6.22%
same,"viability, T/C",[12],5.91%
same,"viability, T/C",[31],9.61%
same,"viability, T/C",[32],10.8%
same,"viability, T/C",[13],10.5%
same,"viability, T/C",[14],9.83%
same,"viability, T/C",[15],7.75%
same,"viability, T/C",[16],4.65%
same,"viability, T/C",[33],9.58%
same,"viability, T/C",[34],11.5%
same,"viability, T/C",[17],10.6%
same,"viability, T/C",[18],9.71%
same,"viability, T/C",[19],8.29%
same,"viability, T/C",[20],7.29%
same,"viability, T/C",[35],12.8%
same,"viability, T/C",[36],11%
same,"viability, T/C",[21],13.6%
same,"viability, T/C",[22],11.9%
same,"viability, T/C",[23],8.72%
same,"viability, T/C",[24],5.52%
